According to US20070184080A1, “Post harvest treatment of crops” (AstraZeneca UK Ltd, priority 2002, published 2007):

Test system: Colletotrichum musae
Assay: Field test on inoculated banana hands: severity and incidence of molds and rots after 21 days storage
Type: in vivo
Details: 14 Degrees C., 90% RH
From the text: As set forth below, two sample formulations, Formula “C” and Formula “F”, containing paraffin wax, microcrystalline wax, and polybutylene (synthetic butyl rubber) were field tested in a tropical commercial banana operation. The test was designed to test the wax fungicide alternative, “the invention”, versus untreated placebo fruit and identical fruit treated with commercial fungicides. The inoculants were a highly concentrated aqueous Colletotrichum musae spore solution that is grossly more concentrated than actual field processing conditions. […] The test methodology included with four main test groups, each containing a statistically significant number of banana hands (clusters) to compare the relative infestation incidence rate of: • a.) Untreated inoculated fruit. • b.) Modified-wax treated inoculated fruit.—Two Formulas, C and F • c.) Fungicide treated inoculated fruit. • 1.) All of the fruit was inoculated with an aqueous suspension of 20,000 spores per milliliter of Colletotrichum by immersion in said suspension for a minimum of one minute. • 2.) The Formula C and F wax treated fruit was processed by dipping the wet crown of the inoculated banana hands into the molten wax, cooling for one minute, and re-dipping in the molten wax. • 3.) The Fungicide treated fruit was immersed into an aqueous solution of Thiabenzadole at the manufacturer's recommended dosage. • 4. All of the fruit was packaged and stored in a laboratory warehouse for twenty-one days at a temperature of 14 Degrees C. and ninety percent relative humidity. An empirical visual grading scale was employed to record and measure test results for a.) The presence or absence of rots and molds.; and b.) The severity of infestation. Latex staining was also observed and recorded. A visual infestation severity scale of one to five (1-5) was created where: 1=clean crown, and 5=severely rotten crown. After incubation, the banana producer's trained laboratory technicians graded the fruit and the aggregate results were compiled as presented below.

For `c1ccc2[nH]c(-c3cscn3)nc2c1` [Thiabenzadole], the “Severity Crown Mold” value (Procedure I = Inoculated (20,000 spores/ml Colletotrichum), 1=clean crown, 5=severely rotten crown) was 3.7 Scale 1-5, the “INCIDENCE Crown Mold” value (Procedure I = Inoculated) was 92.2% and the “INCIDENCE Crown Rot” value (Procedure I = Inoculated) was 100%. For the same compound, the “INCIDENCE Neck Rot” value (Procedure I = Inoculated) was 27.2%, the “INCIDENCE Peel Rot” value (Procedure I = Inoculated) was 84% and the “Severity Crown Rot” value (Procedure I = Inoculated, 1=clean crown, 5=severely rotten crown) was 3.92 Scale 1-5.
